The subject of data set [1] is Rattus norvegicus. Nature of the data set: Ulcerogenicity in ip dosed fasted Sprague-Dawley rat after 24 hrs by hand lens. The note with it: in vivo. Format: toxicity, organism-based.
Data set [2] concerns the target T1, Prostaglandin G/H synthase 1 (Ovis aries, UniProt P05979).
T1 sequence (P05979 whole entry): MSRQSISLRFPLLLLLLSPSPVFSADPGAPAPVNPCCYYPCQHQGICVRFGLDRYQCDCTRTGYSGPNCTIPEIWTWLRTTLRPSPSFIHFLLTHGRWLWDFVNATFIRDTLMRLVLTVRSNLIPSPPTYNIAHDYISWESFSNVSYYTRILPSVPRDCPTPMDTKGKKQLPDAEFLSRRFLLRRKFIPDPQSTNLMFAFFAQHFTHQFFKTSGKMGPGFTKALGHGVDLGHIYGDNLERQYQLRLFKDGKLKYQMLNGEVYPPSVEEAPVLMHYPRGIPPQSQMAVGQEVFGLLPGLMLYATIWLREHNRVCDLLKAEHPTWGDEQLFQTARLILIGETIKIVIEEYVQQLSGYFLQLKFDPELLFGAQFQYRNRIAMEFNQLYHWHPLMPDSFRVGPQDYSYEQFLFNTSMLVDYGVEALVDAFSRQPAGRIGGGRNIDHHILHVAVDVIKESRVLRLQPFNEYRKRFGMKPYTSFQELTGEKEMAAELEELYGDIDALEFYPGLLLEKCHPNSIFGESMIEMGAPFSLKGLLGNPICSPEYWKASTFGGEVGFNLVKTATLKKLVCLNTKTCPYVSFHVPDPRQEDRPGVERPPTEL
Description: Inhibition of ovine COX-1 using arachidonic acid as substrate assessed as production of […] preincubated for 5 mins followed by addition of substrate measured after 2 mins by EIA.

Data set [3] has as its system Mus musculus. Nature of the data set: Analgesic activity in ip dosed albino Swiss mouse assessed as decrease in licking or blowing time administered as single dose measured after 1 hr by hot plate test. The format is functional.
Data set [4] has as its system Rattus norvegicus. Nature of the data set: Antiinflammatory activity in ip dosed carrageenan induced Sprague-Dawley rat paw oedema model assessed as reduction of paw volume measured after 2 hrs by plethysmometer method. Format: functional. (In general: The carrageenan paw model is a standard test of acute inflammation.)
The subject of data set [5] is Mus musculus. Description: Analgesic activity in albino Swiss mouse assessed as decrease in licking or blowing time at 200 mg/kg, ip administered as single dose measured after 1 hr by hot plate test. The format is functional, organism-based. In general terms: In hot-plate and tail-flick tests a longer latency is read as antinociception.
In data set [6] the test system is Rattus norvegicus. Description: Antiinflammatory activity in carrageenan induced Sprague-Dawley rat paw oedema model assessed as reduction of paw volume at 200 mg/kg, ip measured after 2 hrs by plethysmometer method. Format: functional, organism-based.

SMILES strings stand for the structures. Active and inactive are the calls of the source. The rule behind the calls is not given here.

As usually defined, the IC50 is the midpoint of a concentration-inhibition curve. Broadly, the ED50 is the dose that gives a 50% effect, or the effect in half of the subjects.

On to `O=C(CO[N+](=O)[O-])N1N=C(c2ccc(F)cc2)CC1c1ccc([N+](=O)[O-])cc1` (stereo not drawn), for which the Activity in the data set with Rattus norvegicus [1] was greater than 200 mg/kg. Also, the IC50 in data set [2] was greater than 100 µM. For the same compound, the ED50 in the data set on Mus musculus [3] worked out at 55.1 mg/kg; with Rattus norvegicus [4] it was 65.3 mg/kg.
`O=C(CCl)N1N=C(c2ccc(Br)cc2)CC1c1ccc([N+](=O)[O-])cc1` (stereo not drawn): the outcome in the data set on Mus musculus [5] and in the data set on Rattus norvegicus [6] was inactive.
In the data set with Rattus norvegicus [1], `CC(=O)Nc1ccc(C2=NN(c3ccccc3)C(c3ccc(Cl)cc3)C2)cc1` (stereo not drawn) registered an Activity greater than 200 mg/kg. For the same compound, the IC50 in data set [2] was greater than 100 µM. For the same compound, the results for the ED50 in the data set with Mus musculus [3] and with Rattus norvegicus [4] were 49.6 mg/kg and 74.2 mg/kg, respectively.
Regarding `O=C(CO[N+](=O)[O-])N1N=C(c2ccc(Br)cc2)CC1c1ccc([N+](=O)[O-])cc1` (stereo not drawn), the outcome with Mus musculus [5] and in the data set with Rattus norvegicus [6] was inactive.
Regarding `O=C(CO[N+](=O)[O-])N1N=C(c2ccccc2)CC1c1ccc([N+](=O)[O-])cc1` (stereo not drawn), the outcome in the data set with Mus musculus [5] and in the data set with Rattus norvegicus [6] was inactive.
As for `O=C(CCl)N1N=C(c2ccccc2)CC1c1ccc([N+](=O)[O-])cc1` (stereo not drawn), the result in the data set on Mus musculus [5] and in the data set on Rattus norvegicus [6] was inactive.
As to `CC(=O)Nc1ccc(C2=NN(C(C)=O)C(c3ccc([N+](=O)[O-])cc3)C2)cc1` (stereo not drawn), the Activity in the data set with Rattus norvegicus [1] was greater than 200 mg/kg. For the same compound, the IC50 in data set [2] is greater than 100 µM. For the same compound, the ED50 in the data set with Mus musculus [3] is 48.1 mg/kg.
Consider `O=C(CO[N+](=O)[O-])N1N=C(c2ccc(Br)cc2)CC1c1ccc(Cl)cc1` (stereo not drawn), for which the outcome with Mus musculus [5] and with Rattus norvegicus [6] was inactive.
Consider `O=[N+]([O-])c1ccc(C2CC(c3ccc(F)cc3)=NN2)cc1` (stereo not drawn), for which the Activity with Rattus norvegicus [1] is greater than 200 mg/kg. Besides, the ED50 in the data set with Mus musculus [3] was determined as 59.1 mg/kg; in the data set on Rattus norvegicus [4] it was 89.7 mg/kg.
In turn, `O=C(CCl)Nc1ccc(C2=NN(C(=O)CCl)C(c3ccc([N+](=O)[O-])cc3)C2)cc1` (stereo not drawn) registered an Activity in the data set on Rattus norvegicus [1] greater than 200 mg/kg. Besides, the ED50 in the data set with Mus musculus [3] turned out to be 81.9 mg/kg; in the data set with Rattus norvegicus [4], 90.3 mg/kg.
Take `CC(=O)c1ccc(NCC(=O)N2N=C(c3ccccc3)CC2c2ccc([N+](=O)[O-])cc2)cc1` (stereo not drawn): the Activity with Rattus norvegicus [1] is greater than 200 mg/kg. The IC50 in data set [2] is greater than 100 µM. The figures for the ED50 in the data set with Mus musculus [3] and with Rattus norvegicus [4] were 38.6 mg/kg and 59.4 mg/kg, respectively.
With `Fc1ccc(C2=NNC(c3ccc(Cl)cc3)C2)cc1` (stereo not drawn), the outcome with Mus musculus [5] and with Rattus norvegicus [6] was inactive.
In the data set on Rattus norvegicus [1], `CC(=O)c1ccc(NCC(=O)N2N=C(c3ccc(F)cc3)CC2c2ccc([N+](=O)[O-])cc2)cc1` (stereo not drawn) came in with an Activity greater than 200 mg/kg. The IC50 in data set [2] was greater than 100 µM. The ED50 was 49.4 mg/kg with Mus musculus [3] and 73.2 mg/kg in the data set with Rattus norvegicus [4].
Take `Nc1ccc(C2=NNC(c3ccc([N+](=O)[O-])cc3)C2)cc1` (stereo not drawn): the outcome with Mus musculus [5] and in the data set with Rattus norvegicus [6] was inactive.
In the data set with Rattus norvegicus [1], `O=C(CCl)N1N=C(c2ccc(F)cc2)CC1c1ccc([N+](=O)[O-])cc1` (stereo not drawn) registered an Activity greater than 200 mg/kg. Moreover, the figures for the ED50 in the data set on Mus musculus [3] and in the data set on Rattus norvegicus [4] were 68.2 mg/kg and 98.4 mg/kg, respectively.
In the case of `Nc1ccc(C2=NN(C(=O)CCl)C(c3ccc([N+](=O)[O-])cc3)C2)cc1` (stereo not drawn), the outcome in the data set with Mus musculus [5] and with Rattus norvegicus [6] was inactive.
In turn, `CC(=O)c1ccc(NCC(=O)N2N=C(c3ccc(Br)cc3)CC2c2ccc([N+](=O)[O-])cc2)cc1` (stereo not drawn) returned an Activity in the data set with Rattus norvegicus [1] greater than 200 mg/kg. Further, the ED50 in the data set with Mus musculus [3] was found to be 87.8 mg/kg; in the data set on Rattus norvegicus [4] it was 95.9 mg/kg.
For the compound `CC(=O)Nc1ccc(C2=NN(c3ccccc3)C(c3ccc([N+](=O)[O-])cc3)C2)cc1` (stereo not drawn), the Activity in the data set with Rattus norvegicus [1] is greater than 200 mg/kg. Besides, the ED50 in the data set with Mus musculus [3] was found to be 75.2 mg/kg; in the data set with Rattus norvegicus [4], 91.3 mg/kg.
`Cc1ccc(-c2cc(C(F)(F)F)nn2-c2ccc(S(N)(=O)=O)cc2)cc1` [CELECOXIB] gave an Activity in the data set on Rattus norvegicus [1] greater than 200 mg/kg. Moreover, the ED50 with Mus musculus [3] is 72 mg/kg; in the data set with Rattus norvegicus [4], 89 mg/kg.
